Results from PubChem BioAssay (NCI).
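Values below derive from 48-hour exposures of cells grown in 96-well plates, with endpoints linearly interpolated between the two concentrations bracketing the appropriate inhibition level. The concentration for 50% growth inhibition is given as GI50. TGI marks complete inhibition of growth.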

What was measured:
Test in all cases: NCI-60 cell line screen, 48 h
[1] = test system: NCI-H23 lung
[2] = test system: NCI-H460 lung
[3] = test system: NCI-H522 lung
[4] = test system: NCI/ADR-RES ovarian
[5] = test system: OVCAR-3 ovarian
[6] = test system: OVCAR-4 ovarian
[7] = test system: OVCAR-5 ovarian
[8] = test system: OVCAR-8 ovarian
[9] = test system: PC-3 prostate
[10] = test system: RPMI-8226 leukemia
[11] = test system: RXF 393 renal
[12] = test system: SF-268 CNS
[13] = test system: SF-295 CNS
[14] = test system: SF-539 CNS
[15] = test system: SK-MEL-2 melanoma
[16] = test system: SK-MEL-28 melanoma
[17] = test system: SK-MEL-5 melanoma
[18] = test system: SK-OV-3 ovarian
[19] = test system: SN12C renal
[20] = test system: SNB-19 CNS
[21] = test system: SNB-75 CNS
[22] = test system: SR leukemia
[23] = test system: SW-620 colon
[24] = test system: T-47D breast
[25] = test system: TK-10 renal
[26] = test system: U251 CNS
[27] = test system: UACC-257 melanoma
[28] = test system: UACC-62 melanoma
[29] = test system: UO-31 renal

Cc1ccc2cc3c(N)c4c(C)ccc(C)c4nc3nc2c1
TGI [1]: 28.6 µM | GI50 [2]: 1.84 µM | TGI [2]: 3.77 µM | GI50 [3]: 3.74 µM | TGI [3]: 20.7 µM | GI50 [4]: 2.95 µM | TGI [4]: 16.7 µM | GI50 [5]: 6.12 µM | TGI [5]: 21.1 µM | GI50 [6]: 3.79 µM | TGI [6]: 14.8 µM | GI50 [7]: 1.99 µM | TGI [7]: 5.05 µM | GI50 [8]: 5.64 µM | TGI [8]: 23.5 µM | GI50 [9]: 6.89 µM | TGI [9]: 21.6 µM | GI50 [10]: 2.02 µM | TGI [10]: 5.27 µM | GI50 [11]: 1.8 µM | TGI [11]: 3.62 µM | GI50 [12]: 11.8 µM | TGI [12]: 25.8 µM | GI50 [13]: 1.66 µM | TGI [13]: 3.05 µM | GI50 [14]: 7.97 µM | TGI [14]: 23.1 µM | GI50 [15]: 14 µM | TGI [15]: 29.3 µM | GI50 [16]: 13.7 µM | TGI [16]: 28.5 µM | GI50 [17]: 8.14 µM | TGI [17]: 21 µM | GI50 [18]: 11.4 µM | TGI [18]: 24 µM | GI50 [19]: 6.75 µM | TGI [19]: 21 µM | GI50 [20]: 7.02 µM | TGI [20]: 23.8 µM | GI50 [21]: 5.97 µM | TGI [21]: 20.7 µM | GI50 [22]: 2.3 µM | TGI [22]: 7.33 µM | GI50 [23]: 2.81 µM | TGI [23]: 15.3 µM | GI50 [24]: 2.14 µM | TGI [24]: 6.1 µM | GI50 [25]: 12.2 µM | TGI [25]: 25.5 µM | GI50 [26]: 4.58 µM | TGI [26]: 18.1 µM | GI50 [27]: 14.2 µM | TGI [27]: 28.6 µM | GI50 [28]: 7.72 µM | TGI [28]: 22 µM | GI50 [29]: 3.6 µM | TGI [29]: 19.6 µM
